{
  "source": "paper PMC5618421",
  "about": "“Anti-Inflammatory Effects of Curvularin-Type Metabolites from a Marine-Derived Fungal Strain Penicillium sp. SF-5859 in Lipopolysaccharide-Induced RAW264.7 Macrophages” (Marine Drugs, 2017)",
  "key": {"[1]": {"tested_on": "PGE2 production in LPS-treated RAW 264.7 macrophages", "experiment": "Inhibition of PGE2 production (PGE2 ELISA kit) in LPS-treated RAW264.7 macrophages", "type": "cell-based", "details": "Mus musculus, RAW264.7 macrophages pre-treated 3 h with compound, then LPS (1 μg/mL) 24 h", "method": "All isolated compounds (1–9) were evaluated for their anti-inflammatory effects. […] NO is a small molecule which is an intracellular mediator produced in various immune cells. It plays a pivotal role in the physiological and pathological condition of inflammatory symptoms. PGE2 can also regulate the immune and inflammatory responses. In this study, RAW264.7 macrophages were pre-treated for 3 h in the medium containing non-toxic concentrations (Table 2) of each compound (1–9), and then LPS (1 μg/mL) was treated for 24 h. According to the LPS stimulation of RAW264.7 macrophages, production of NO and PGE2 was increased, and the effects of all compounds on the production level of NO and PGE2 were evaluated by the Griess reaction and a PGE2 kit, respectively. […] To evaluate the impact of phenol and resorcinol groups in the curvularin-type metabolites for the anti-inflammatory activity, 5-O-methyl and 5,7,-di-O-methyl derivatives of curvularin (3a and 3b, respectively), as well as 5-O-acetyl and 5,7,-di-O-acetyl derivatives of curvularin (3c and 3d, respectively), were prepared, and the structures of 3a–3d were identified by comparison the ^1H and ^13C-NMR spectroscopic data with those of curvularin (3), and confirmed by their HRESIMS. […] The position of the methoxy group in 3a was confirmed by HMBC correlation between methoxy signal at δH 3.77 (3H, s, 5-OCH3) and δC 161.8 (C-5). The NOESY cross-peaks between acetyl proton ([…]) with H-2, H-4, and H-16 of 3c were used to identify the position of the acetyl group in 3c. […] Further systematic investigations are needed to clarify the structure activity relationship associated with the modification of the aliphatic part of the molecule.\nRPMI1640, fetal bovine serum (FBS), and other tissue culture reagents were purchased from Gibco BRL Co. (Grand Island, NY, USA). All other chemicals were obtained from Sigma-Aldrich Co. (St. Louis, MO, USA). Primary antibodies (COX-2: sc-1745; iNOS: sc-650; IκB-α: sc-371; p-IκB-α: sc-8404; p50: sc-7178; p65: sc-8008, Santa Cruz Biotechnology, Dallas, TX, USA, p-ERK: #9101; ERK: #9102; p-JNK: #9251; JNK: #9252S; p-p38: #9211; p38: 9212S, Cell Signaling Technology, Danvers, MA, USA) and secondary antibodies (mouse: ap124p; goat: ap106p; rabbit: ap132p, Millipore, Billerica MA, USA). Enzyme-linked immunosorbent assay (ELISA) kits for PGE2 were purchased from R and D Systems, Inc. (Minneapolis, MN, USA)."}, "RAW264.7 macrophages": {"tested_on": "RAW264.7 macrophages", "experiment": "Cell viability (MTT) cytotoxic assay", "type": "cell-based", "details": "RAW264.7 macrophages, MTT", "method": "RAW264.7 macrophages were maintained at a density of 5 × 10^5 cells/mL in RPMI1640 medium supplemented with 10% heat-inactivated FBS, penicillin G (100 units/mL), streptomycin ([…]), and L-glutamine (2 mM), and were incubated at 37 °C in a humidified atmosphere containing 5% CO2. For determination of cell viability, cells (1 × 10^5 cells/well in 96-well plates) were incubated with 3-(4,5-dimethylthiazol-2-yl)-2,5-diphenyltetrazolium bromide (MTT) at a final concentration of 0.5 mg/mL for 3 h, and the formazan formed was dissolved in acidic 2-propanol. The optical density was measured at 540 nm with a microplate reader (BioRad, Hercules, CA, USA). The optical density of the formazan formed in control (untreated) cells was considered to represent 100% viability."}, "COX-2": {"tested_on": "COX-2", "experiment": "Western blot of COX-2 protein expression in LPS-stimulated RAW264.7 macrophages", "type": "cell-based", "details": "pre-treated 3 h, LPS 24 h", "excerpt": "Therefore, we further tested whether inhibitory effects of 8 against NO and PGE2 productions are correlated with the protein expression of pro-inflammatory enzymes (i.e., iNOS and COX-2, respectively), which are known to catalyze the production of NO and PGEs in LPS-stimulated cells. […] Upon the stimulation by LPS, macrophages can also trigger the production of pro-inflammatory cytokines such as TNF-α, and ILs. The overproduction of these cytokines contributes to the pathogenesis of inflammatory diseases. Thus, we further evaluated the effects of 8 on the mRNA expression of pro-inflammatory cytokines in the LPS-induced cells. The cells were pre-treated with indicated concentration for 3 h, followed by LPS stimulation (1 μg/mL) for 6 h. The mRNA expression of pro-inflammatory cytokines was determined by RT-qPCR.\nFigure 2 Effects of 8 on protein expression levels of iNOS and COX-2 (a), and mRNA expression levels of IL-1β (Il1b) (b), IL-6 (Il6) (c), and TNF-α (Tnf) (d) in RAW264.7 macrophages. The cells were pre-treated for 3 h with the indicated concentrations of 8 and stimulated for 24 h (a), and 6 h (b–d) with LPS (1 μg/mL). The measurement of western blot analysis and RNA quantification for Il1b, Il6, and Tnf expression were performed as described in the Materials and Methods. […]\nThe proteins of iNOS, COX-2, NF-κB, and MAPKs were measured by Western blot analysis. […]"}, "IL-1β (Il1b)": {"tested_on": "IL-1β (Il1b)", "experiment": "RT-qPCR of IL-1β mRNA in LPS-stimulated RAW264.7 macrophages", "type": "cell-based", "details": "pre-treated 3 h, LPS (1 μg/mL) 6 h"}, "IL-6 (Il6)": {"tested_on": "IL-6 (Il6)", "experiment": "RT-qPCR of IL-6 mRNA in LPS-stimulated RAW264.7 macrophages", "type": "cell-based", "details": "pre-treated 3 h, LPS (1 μg/mL) 6 h"}, "p38": {"tested_on": "p38", "experiment": "Western blot of p38 phosphorylation in LPS-treated RAW264.7 macrophages", "type": "cell-based", "details": "pre-treated 3 h, LPS (1 μg/mL) 30 min", "method": "Figure 4 Effects of 8 on p38 (a), JNK (b), and ERK (c) phosphorylation in RAW264.7 macrophages. Cells were pre-treated with the indicated concentrations of 8 for 3 h and stimulated for 30 min with LPS (1 μg/mL). Cell extracts were subjected to Western blotting with antibodies specific for phosphorylated-p38 (p-p38), phosphorylated JNK (p-JNK), or phosphorylated ERK1/2 (p-ERK). Membranes were stripped and re-probed to measure the total abundance of each MAPK as a control measurement. Representative blots from three independent experiments are shown.\nThe proteins of iNOS, COX-2, NF-κB, and MAPKs were measured by Western blot analysis. The details of procedures for Western blot analysis were described previously."}, "p97": {"tested_on": "p97", "parameters": "method as in PMID 27223265", "details": "interfering with its ATPase activity; cited from earlier work"}},
  "data": [
    {"smiles": "C[C@H]1CCC/C=C/C(=O)c2c(O)cc(O)cc2CC(=O)O1", "note": "[Compound 8, (10E,15S)-10,11-dehydrocurvularin]", "values": [
      {"measurement": "IC50", "setting": "[1]", "value": "2700 ± 400", "unit": "nM"},
      {"measurement": "Cytotoxicity (the maximum concentration not affecting cell viability)", "setting": "RAW264.7 macrophages", "value": 20, "unit": "µM"},
      {"measurement": "COX-2 protein expression", "setting": "COX-2", "value": "attenuation of the excessive protein expression of iNOS and COX-2 in a dose-dependent manner"},
      {"measurement": "mRNA expression of IL-1β", "setting": "IL-1β (Il1b)", "value": "markedly suppressed the mRNA expression of IL-1β, IL-6, and TNF-α in a dose-dependent manner"},
      {"measurement": "mRNA expression of IL-6", "setting": "IL-6 (Il6)", "value": "markedly suppressed the mRNA expression of IL-1β, IL-6, and TNF-α in a dose-dependent manner"},
      {"measurement": "LPS-induced phosphorylation of p38", "setting": "p38", "value": "did not suppress these phosphorylations"},
      {"measurement": "inhibition of p97", "setting": "p97", "value": "covalent inhibitor of p97"}
    ]}
  ]
}
